Reference: the supplement of paper PMC10307832

Experiments:
Assay in all cases: relative viability (nuclei count vs DMSO), 5 days (fraction); higher = more cells survive
Pazopanib + Decitabine = compound: Cc1ccc(Nc2nccc(N(C)c3ccc4c(C)n(C)nc4c3)n2)cc1S(N)(=O)=O [Pazopanib] + Nc1ncn([C@H]2C[C@H](O)[C@@H](CO)O2)c(=O)n1 [Decitabine] (partner 2 µM)
Outline: (§1)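 A single step with final 0.05% Triton X-100, 1% formaldehyde and 1 ug/ml Hoechst fixed the cells and stained nuclei 5 days after treatment. Lung cancer cell lines in 1536-well plates had been treated by pin tool the day after seeding with one drug alone or a fixed anchor-drug dose plus five library-drug doses (not always all listed) in √10 steps, and nuclei were counted on 4× images. Relative viability is the ratio of nuclei in treated wells to nuclei in vehicle wells, taken as the median of duplicate plates.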

Pazopanib + Tozasertib = compound: Cc1ccc(Nc2nccc(N(C)c3ccc4c(C)n(C)nc4c3)n2)cc1S(N)(=O)=O [Pazopanib] + Cc1cc(Nc2cc(N3CCN(C)CC3)nc(Sc3ccc(NC(=O)C4CC4)cc3)n2)n[nH]1 [Tozasertib] (partner 0.1 µM)
Outline: as §1

Ponatinib + Olaparib = compound: Cc1ccc(C(=O)Nc2ccc(CN3CCN(C)CC3)c(C(F)(F)F)c2)cc1C#Cc1cnc2cccnn12 [Ponatinib] + O=C(c1cc(Cc2n[nH]c(=O)c3ccccc23)ccc1F)N1CCN(C(=O)C2CC2)CC1 [Olaparib] (partner 8 µM)
Outline: as §1

Ponatinib + Lapatinib = compound: Cc1ccc(C(=O)Nc2ccc(CN3CCN(C)CC3)c(C(F)(F)F)c2)cc1C#Cc1cnc2cccnn12 [Ponatinib] + CS(=O)(=O)CCNCc1ccc(-c2ccc3ncnc(Nc4ccc(OCc5cccc(F)c5)c(Cl)c4)c3c2)o1 [Lapatinib] (partner 2 µM)
Outline: as §1

Row | Cell Line | relative viability (Pazopanib + Decitabine; first compound 0.01 µM) | relative viability (Pazopanib + Decitabine; first compound 0.03162 µM) | relative viability (Pazopanib + Decitabine; first compound 0.1 µM) | relative viability (Pazopanib + Decitabine; first compound 0.3162 µM) | relative viability (Pazopanib + Decitabine; first compound 1 µM) | relative viability (Pazopanib + Tozasertib; first compound 0.01 µM) | relative viability (Pazopanib + Tozasertib; first compound 0.03162 µM) | relative viability (Pazopanib + Tozasertib; first compound 0.1 µM) | relative viability (Pazopanib + Tozasertib; first compound 0.3162 µM) | relative viability (Pazopanib + Tozasertib; first compound 1 µM) | relative viability (Ponatinib + Olaparib; first compound 0.002 µM) | relative viability (Ponatinib + Olaparib; first compound 0.006325 µM) | relative viability (Ponatinib + Olaparib; first compound 0.06325 µM) | relative viability (Ponatinib + Olaparib; first compound 0.2 µM) | relative viability (Ponatinib + Lapatinib; first compound 0.002 µM) | relative viability (Ponatinib + Lapatinib; first compound 0.006325 µM) | relative viability (Ponatinib + Lapatinib; first compound 0.06325 µM) | relative viability (Ponatinib + Lapatinib; first compound 0.2 µM)
1 | NCI-H2085 | 0.573 | 0.508 | 0.555 | 0.602 | 0.581 | 0.738 | 0.848 | 0.828 | 0.786 | 0.776 | 0.808 | 0.814 | 0.9 | 0.754 | 0.733 | 0.815 | 0.843 | 0.879
2 | NCI-H2087 | 0.186 | 0.321 | 0.264 | 0.252 | 0.424 | 0.298 | 0.27 | 0.279 | 0.281 | 0.256 | 0.514 | 0.609 | 0.635 | 0.497 | 0.708 | 0.781 | 0.876 | 0.672
3 | NCI-H2126 | 0.517 | 0.59 | 0.614 | 0.561 | 0.643 | 0.805 | 0.828 | 0.877 | 0.86 | 0.842 | 0.902 | 0.904 | 0.967 | 0.847 | 0.729 | 0.766 | 0.888 | 0.718
4 | NCI-H2170 | 0.47 | 0.467 | 0.453 | 0.449 | 0.428 | 0.772 | 0.724 | 0.73 | 0.67 | 0.674 | 0.583 | 0.599 | 0.631 | 0.639 | 0.281 | 0.295 | 0.289 | 0.298
5 | NCI-H2347 | 0.68 | 0.555 | 0.673 | 0.732 | 0.666 | 0.45 | 0.586 | 0.607 | 0.593 | 0.588 | 0.546 | 0.604 | 0.625 | 0.547 | 0.951 | 0.908 | 0.94 | 0.93
6 | NCI-H2405 | 0.724 | 0.774 | 0.8 | 0.858 | 0.814 | 0.77 | 0.777 | 0.79 | 0.75 | 0.76 | 0.784 | 0.796 | 0.95 | 0.776 | 0.928 | 1.03 | 1.08 | 0.877
7 | NCI-H3122 | 0.516 | 0.407 | 0.474 | 0.449 | 0.459 | 0.408 | 0.382 | 0.435 | 0.394 | 0.426 | 0.507 | 0.634 | 0.564 | 0.592 | 0.993 | 1 | 1.01 | 1.07
8 | PC-3 [JPC-3] |  | 0.885 | 0.773 | 0.916 | 0.787 | 0.947 | 0.918 | 0.916 | 0.915 | 0.756 |  | 1.15 | 1.3 | 1.09 | 0.43 | 0.45 | 0.492 | 0.502
9 | PC-14 | 0.186 | 0.221 | 0.245 | 0.226 | 0.305 | 0.69 | 0.636 | 0.725 | 0.586 | 0.603 | 0.334 | 0.359 | 0.347 | 0.284 | 0.313 | 0.363 | 0.384 | 0.386
10 | RERF-LC-KJ | 0.66 | 0.681 | 0.739 | 0.631 | 0.699 | 0.557 | 0.522 | 0.507 | 0.432 | 0.331 | 0.874 | 0.879 | 0.988 | 0.793 | 0.8 | 0.882 | 0.881 | 0.8
11 | SK-LU-1 | 0.568 | 0.611 | 0.633 | 0.632 | 0.665 | 0.332 | 0.361 | 0.334 | 0.28 | 0.318 | 0.36 | 0.491 | 0.535 | 0.388 | 0.636 | 0.858 | 0.864 | 0.741
12 | SK-MES-1 | 0.338 | 0.359 | 0.369 | 0.416 | 0.55 | 0.934 | 0.891 | 0.916 | 0.905 | 0.786 | 0.765 | 0.819 | 0.857 | 0.769 | 0.472 | 0.531 | 0.749 | 0.59
13 | SW 1573 | 0.465 | 0.52 | 0.607 | 0.528 | 0.7 | 0.193 | 0.216 | 0.218 | 0.153 | 0.176 | 0.591 | 0.519 | 0.496 | 0.408 | 1.1 | 1.19 | 1.25 | 1.22
